Reference: ChEMBL document CHEMBL1201862, “PubChem BioAssay data set” (2004)
Calls of active or inactive are those of the source.

Tests used:
[1] = viability loss in HeLa cells – cytotoxicity control for MgcRacGAP inhibitor project, dose response (AID 624300); assay type: functional
[2] = molecular target: T1, Rac GTPase-activating protein 1 (Homo sapiens, UniProt Q9H0H5); assay: blockers of MgcRacGAP-driven Rac1 GTP hydrolysis – biochemical, ADP Hunter fluorescence, primary and confirmatory, confirmation (AID 624330); assay type: functional
T1 sequence (Q9H0H5 whole entry): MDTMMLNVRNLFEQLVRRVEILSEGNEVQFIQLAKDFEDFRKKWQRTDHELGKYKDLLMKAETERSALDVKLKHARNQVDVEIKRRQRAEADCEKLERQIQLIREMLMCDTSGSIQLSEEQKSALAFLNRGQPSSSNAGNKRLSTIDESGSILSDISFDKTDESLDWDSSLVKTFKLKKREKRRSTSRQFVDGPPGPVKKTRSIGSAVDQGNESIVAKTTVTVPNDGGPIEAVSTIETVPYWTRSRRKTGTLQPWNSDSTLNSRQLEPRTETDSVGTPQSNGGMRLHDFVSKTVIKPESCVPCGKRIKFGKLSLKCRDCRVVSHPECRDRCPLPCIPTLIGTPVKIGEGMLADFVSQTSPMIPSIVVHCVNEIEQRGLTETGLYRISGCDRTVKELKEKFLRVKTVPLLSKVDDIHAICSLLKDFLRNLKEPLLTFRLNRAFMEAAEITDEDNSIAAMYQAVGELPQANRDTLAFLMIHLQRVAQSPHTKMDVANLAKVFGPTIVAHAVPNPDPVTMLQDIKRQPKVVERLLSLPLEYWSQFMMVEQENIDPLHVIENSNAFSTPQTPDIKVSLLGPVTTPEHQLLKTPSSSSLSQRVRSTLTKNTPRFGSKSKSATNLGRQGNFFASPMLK

[3] = molecular target: Potassium voltage-gated channel subfamily KQT member 2 (Rattus norvegicus, UniProt O88943); assay: blockers of KCNQ2 channel current – cell-based, automated electrophysiology, set II, rat KCNQ2, dose response (AID 588637); assay type: functional
Potassium voltage-gated channel subfamily KQT member 2, sequence (O88943 whole entry): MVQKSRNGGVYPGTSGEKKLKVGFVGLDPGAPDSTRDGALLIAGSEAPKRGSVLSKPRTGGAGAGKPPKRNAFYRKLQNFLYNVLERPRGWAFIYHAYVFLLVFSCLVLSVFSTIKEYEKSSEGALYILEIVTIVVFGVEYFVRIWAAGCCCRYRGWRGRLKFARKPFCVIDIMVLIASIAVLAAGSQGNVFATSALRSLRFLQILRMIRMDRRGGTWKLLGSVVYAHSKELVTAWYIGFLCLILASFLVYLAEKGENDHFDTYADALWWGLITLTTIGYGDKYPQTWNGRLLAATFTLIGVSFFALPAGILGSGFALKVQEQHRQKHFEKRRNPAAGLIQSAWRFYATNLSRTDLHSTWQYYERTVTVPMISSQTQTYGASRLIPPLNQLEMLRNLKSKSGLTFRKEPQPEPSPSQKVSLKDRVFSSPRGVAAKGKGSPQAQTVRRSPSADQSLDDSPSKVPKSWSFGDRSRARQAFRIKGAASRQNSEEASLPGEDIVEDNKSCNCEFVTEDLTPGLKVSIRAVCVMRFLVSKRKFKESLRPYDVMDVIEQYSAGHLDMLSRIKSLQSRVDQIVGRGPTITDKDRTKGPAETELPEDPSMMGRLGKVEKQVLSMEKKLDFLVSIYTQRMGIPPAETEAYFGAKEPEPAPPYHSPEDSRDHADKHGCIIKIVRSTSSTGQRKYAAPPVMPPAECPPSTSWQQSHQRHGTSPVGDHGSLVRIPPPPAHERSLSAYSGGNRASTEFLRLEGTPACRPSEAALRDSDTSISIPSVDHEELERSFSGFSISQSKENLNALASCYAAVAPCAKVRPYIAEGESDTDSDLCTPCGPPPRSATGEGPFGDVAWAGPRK

[4] = molecular target: G-protein coupled receptor 55 (Homo sapiens, UniProt Q9Y2T6); assay: selective activators of receptor GPR55 – imaging, U2OS cells, beta-arrestin-GFP redistribution, primary screen (AID 1961); assay type: functional
G-protein coupled receptor 55, sequence (Q9Y2T6 whole entry): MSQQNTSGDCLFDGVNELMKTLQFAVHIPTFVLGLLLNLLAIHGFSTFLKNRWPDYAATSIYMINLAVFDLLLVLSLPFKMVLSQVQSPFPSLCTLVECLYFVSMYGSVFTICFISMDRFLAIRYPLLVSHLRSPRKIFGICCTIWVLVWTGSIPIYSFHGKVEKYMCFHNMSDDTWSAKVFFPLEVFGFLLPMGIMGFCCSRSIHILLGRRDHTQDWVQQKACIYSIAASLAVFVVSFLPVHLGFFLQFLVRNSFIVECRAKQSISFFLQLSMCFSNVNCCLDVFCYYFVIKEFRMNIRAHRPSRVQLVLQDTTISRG

[5] = molecular target: T2, Probable nicotinate-nucleotide adenylyltransferase (Staphylococcus aureus (strain N315), UniProt P65502); assay type: functional, Staphylococcus aureus subsp. aureus N315;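 as to IC50 Mean: confirmatory dose-response retesting of NadD inhibitor hits first found in an ultra-high-throughput screen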
T2 sequence (P65502 whole entry): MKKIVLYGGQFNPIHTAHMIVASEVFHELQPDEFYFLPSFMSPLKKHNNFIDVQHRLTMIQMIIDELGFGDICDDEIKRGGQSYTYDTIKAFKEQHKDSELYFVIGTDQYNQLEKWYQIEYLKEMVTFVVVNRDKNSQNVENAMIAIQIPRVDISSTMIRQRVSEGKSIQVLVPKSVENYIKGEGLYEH

[6] = molecular target: T2, Probable nicotinate-nucleotide adenylyltransferase; assay type: functional, Staphylococcus aureus subsp. aureus N315; conditions: read-out: IC50_Mean
[7] = molecular target: T3, Sentrin-specific protease 8 (Homo sapiens, UniProt Q96LD8); assay type: functional;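 also: luminescence read-out of SENP8 inhibition, dose-response confirmation following an ultra-high-throughput screen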
T3 sequence (Q96LD8 whole entry): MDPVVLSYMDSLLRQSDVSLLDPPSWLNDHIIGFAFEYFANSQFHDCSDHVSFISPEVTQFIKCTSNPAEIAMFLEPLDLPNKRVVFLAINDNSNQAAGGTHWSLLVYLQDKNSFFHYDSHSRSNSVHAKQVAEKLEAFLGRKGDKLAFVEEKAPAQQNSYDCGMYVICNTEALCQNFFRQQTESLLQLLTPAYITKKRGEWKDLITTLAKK

[8] = molecular target: T4, Caspase-3 (Homo sapiens, UniProt P42574); assay type: functional;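 also: Dose-response selectivity test against caspase-3 for candidate inhibitors of sentrin-specific proteases (SENPs)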
T4 sequence (P42574 whole entry): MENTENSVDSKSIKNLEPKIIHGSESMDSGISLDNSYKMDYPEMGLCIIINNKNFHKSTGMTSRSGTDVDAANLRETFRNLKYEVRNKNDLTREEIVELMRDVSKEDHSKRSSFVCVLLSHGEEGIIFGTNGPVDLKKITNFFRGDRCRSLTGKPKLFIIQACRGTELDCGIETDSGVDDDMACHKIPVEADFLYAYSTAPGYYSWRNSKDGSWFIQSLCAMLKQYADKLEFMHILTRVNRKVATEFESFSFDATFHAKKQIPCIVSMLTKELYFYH

[9] = molecular target: T5, Sentrin-specific protease 7 (Homo sapiens, UniProt Q9BQF6); assay type: functional;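 also: Luminescence-based dose-response confirmation of ultra-high-throughput screening hits, measuring inhibition of SENP7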
T5 sequence (Q9BQF6 whole entry): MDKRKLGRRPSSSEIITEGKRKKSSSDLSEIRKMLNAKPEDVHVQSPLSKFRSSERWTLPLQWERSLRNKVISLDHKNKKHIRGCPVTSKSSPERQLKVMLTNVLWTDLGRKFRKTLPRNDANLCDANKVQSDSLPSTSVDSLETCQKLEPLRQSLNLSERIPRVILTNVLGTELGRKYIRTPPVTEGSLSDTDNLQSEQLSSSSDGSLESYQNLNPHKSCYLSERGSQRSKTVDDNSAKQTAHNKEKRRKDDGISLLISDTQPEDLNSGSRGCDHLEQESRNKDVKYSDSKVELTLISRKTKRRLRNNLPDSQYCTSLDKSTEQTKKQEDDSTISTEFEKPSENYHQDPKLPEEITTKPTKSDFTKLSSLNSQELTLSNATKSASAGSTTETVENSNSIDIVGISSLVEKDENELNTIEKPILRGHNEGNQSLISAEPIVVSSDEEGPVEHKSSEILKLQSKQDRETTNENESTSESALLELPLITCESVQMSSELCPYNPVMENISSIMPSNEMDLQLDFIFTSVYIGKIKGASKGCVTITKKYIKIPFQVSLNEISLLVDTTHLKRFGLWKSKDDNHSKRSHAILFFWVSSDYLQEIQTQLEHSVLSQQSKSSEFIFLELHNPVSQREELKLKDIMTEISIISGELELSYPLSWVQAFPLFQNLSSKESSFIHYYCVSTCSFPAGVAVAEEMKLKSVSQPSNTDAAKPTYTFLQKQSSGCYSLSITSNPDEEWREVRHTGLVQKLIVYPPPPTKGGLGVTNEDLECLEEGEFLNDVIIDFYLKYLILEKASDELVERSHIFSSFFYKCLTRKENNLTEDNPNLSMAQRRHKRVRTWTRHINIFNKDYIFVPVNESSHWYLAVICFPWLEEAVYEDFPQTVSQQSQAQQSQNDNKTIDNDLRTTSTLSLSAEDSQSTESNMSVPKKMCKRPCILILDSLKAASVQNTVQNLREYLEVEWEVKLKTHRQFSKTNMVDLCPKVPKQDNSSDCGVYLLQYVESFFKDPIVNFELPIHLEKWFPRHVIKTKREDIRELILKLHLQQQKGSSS

[10] = molecular target: T6, Sentrin-specific protease 6 (Homo sapiens, UniProt Q9GZR1); assay type: functional;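 also: Luminescence-based dose-response confirmatory assay of SENP6 inhibition, following up an ultra-high-throughput screen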
T6 sequence (Q9GZR1 whole entry): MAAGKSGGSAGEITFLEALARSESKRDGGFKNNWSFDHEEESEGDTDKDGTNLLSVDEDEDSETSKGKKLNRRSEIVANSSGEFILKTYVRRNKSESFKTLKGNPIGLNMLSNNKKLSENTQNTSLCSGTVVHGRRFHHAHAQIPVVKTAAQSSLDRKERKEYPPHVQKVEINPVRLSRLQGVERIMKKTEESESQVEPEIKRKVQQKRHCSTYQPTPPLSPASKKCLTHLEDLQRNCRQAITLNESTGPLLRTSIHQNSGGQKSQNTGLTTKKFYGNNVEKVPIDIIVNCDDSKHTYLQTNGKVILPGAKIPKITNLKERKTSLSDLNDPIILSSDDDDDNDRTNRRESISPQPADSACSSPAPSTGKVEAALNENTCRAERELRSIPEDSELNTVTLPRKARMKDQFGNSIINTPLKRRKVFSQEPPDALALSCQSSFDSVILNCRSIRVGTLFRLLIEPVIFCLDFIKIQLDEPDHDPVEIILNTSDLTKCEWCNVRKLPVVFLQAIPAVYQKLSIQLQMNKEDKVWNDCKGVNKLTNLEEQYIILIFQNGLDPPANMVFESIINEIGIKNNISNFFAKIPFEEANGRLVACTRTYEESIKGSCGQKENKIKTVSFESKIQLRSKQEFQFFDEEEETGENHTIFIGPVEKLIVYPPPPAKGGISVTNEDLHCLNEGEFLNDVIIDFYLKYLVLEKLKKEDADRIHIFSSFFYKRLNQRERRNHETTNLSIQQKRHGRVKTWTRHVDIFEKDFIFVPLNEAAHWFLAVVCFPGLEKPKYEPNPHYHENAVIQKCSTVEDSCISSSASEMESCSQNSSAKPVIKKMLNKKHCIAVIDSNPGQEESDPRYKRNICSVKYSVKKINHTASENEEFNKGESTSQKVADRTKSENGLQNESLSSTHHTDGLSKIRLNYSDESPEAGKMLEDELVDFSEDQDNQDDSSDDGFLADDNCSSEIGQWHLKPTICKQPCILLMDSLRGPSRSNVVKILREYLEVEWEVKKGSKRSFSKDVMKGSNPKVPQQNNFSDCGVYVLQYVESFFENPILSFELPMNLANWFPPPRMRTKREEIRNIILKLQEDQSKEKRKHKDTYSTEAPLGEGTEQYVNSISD

[11] = molecular target: Dual specificity protein phosphatase 3 (Homo sapiens, UniProt P51452); assay: VHR phosphatase inhibition, dose response, selectivity assay for STEP inhibitor project, biochemical (AID 602374); assay type: functional; conditions: read-out: IC50_Mean
Dual specificity protein phosphatase 3, sequence (P51452 whole entry): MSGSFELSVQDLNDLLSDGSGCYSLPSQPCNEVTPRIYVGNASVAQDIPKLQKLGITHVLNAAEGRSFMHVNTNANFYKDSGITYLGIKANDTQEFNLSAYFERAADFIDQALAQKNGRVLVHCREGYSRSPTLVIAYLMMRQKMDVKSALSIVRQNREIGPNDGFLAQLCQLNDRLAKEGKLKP

[12] = molecular target: Tyrosine-protein phosphatase non-receptor type 11 (Homo sapiens, UniProt Q06124); assay: PTPN11 enzyme inhibitors – biochemical, selectivity assay for STEP inhibitor project, dose response (AID 602367); assay type: functional; conditions: read-out: IC50_Mean
Tyrosine-protein phosphatase non-receptor type 11, sequence (Q06124 whole entry): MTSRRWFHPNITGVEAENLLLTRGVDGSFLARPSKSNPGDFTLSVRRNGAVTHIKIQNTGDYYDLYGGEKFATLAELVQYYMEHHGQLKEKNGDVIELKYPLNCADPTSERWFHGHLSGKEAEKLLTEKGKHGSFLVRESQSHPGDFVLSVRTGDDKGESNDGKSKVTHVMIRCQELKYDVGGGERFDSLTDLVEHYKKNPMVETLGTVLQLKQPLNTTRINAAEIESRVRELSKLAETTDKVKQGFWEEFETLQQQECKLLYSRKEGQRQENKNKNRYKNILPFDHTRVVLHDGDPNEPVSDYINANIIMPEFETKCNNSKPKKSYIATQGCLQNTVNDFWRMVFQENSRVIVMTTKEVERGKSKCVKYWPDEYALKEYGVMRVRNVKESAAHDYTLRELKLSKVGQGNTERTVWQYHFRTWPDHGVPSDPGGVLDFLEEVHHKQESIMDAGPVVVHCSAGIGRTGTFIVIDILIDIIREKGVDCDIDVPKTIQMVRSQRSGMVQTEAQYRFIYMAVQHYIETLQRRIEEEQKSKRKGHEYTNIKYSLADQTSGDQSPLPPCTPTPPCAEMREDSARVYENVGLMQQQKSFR

[13] = molecular target: Tyrosine-protein phosphatase non-receptor type 5 (Homo sapiens, UniProt P54829); assay: PTPN5 enzyme inhibition – biochemical, fluorescence intensity, uHTS hits, confirmation (AID 602372); assay type: functional; conditions: read-out: IC50_Mean
Tyrosine-protein phosphatase non-receptor type 5, sequence (P54829 whole entry): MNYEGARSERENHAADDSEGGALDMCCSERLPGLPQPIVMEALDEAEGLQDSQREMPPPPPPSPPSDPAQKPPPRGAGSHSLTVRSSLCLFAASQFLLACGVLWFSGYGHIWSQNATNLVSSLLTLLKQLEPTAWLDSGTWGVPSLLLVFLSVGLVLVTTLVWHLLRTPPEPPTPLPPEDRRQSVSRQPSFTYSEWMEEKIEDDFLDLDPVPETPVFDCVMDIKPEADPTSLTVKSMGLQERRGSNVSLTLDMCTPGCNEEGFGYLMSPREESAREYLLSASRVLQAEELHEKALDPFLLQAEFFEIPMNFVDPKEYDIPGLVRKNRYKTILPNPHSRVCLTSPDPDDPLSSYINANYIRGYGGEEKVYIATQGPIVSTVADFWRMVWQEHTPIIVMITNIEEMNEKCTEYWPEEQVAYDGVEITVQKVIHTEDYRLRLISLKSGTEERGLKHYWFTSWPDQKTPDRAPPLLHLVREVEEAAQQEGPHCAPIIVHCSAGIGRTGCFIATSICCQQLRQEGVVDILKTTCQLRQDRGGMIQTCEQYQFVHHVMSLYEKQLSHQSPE

[14] = molecular target: T7, Endoribonuclease toxin MazF (Escherichia coli K-12, UniProt P0AE70); assay: substrate-only fluorescence increase artefacts – biochemical, single-stranded RNase substrate, counter-screen for MazEF activator project, dose response (AID 588502); assay type: functional
T7 sequence (P0AE70 whole entry): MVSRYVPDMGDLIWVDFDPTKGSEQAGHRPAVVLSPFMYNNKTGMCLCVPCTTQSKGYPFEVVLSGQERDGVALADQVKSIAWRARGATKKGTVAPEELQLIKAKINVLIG

[15] = molecular target: T7, Endoribonuclease toxin MazF; assay: activation of MazEF endoribonuclease cleavage – biochemical, fluorescence, single-stranded RNA substrate, uHTS hits, dose response (AID 588481); assay type: functional
[16] = test system: HEK293; assay: cells; conditions: Homo sapiens
[17] = test system: HEK293; assay: cells; conditions: Homo sapiens; remark: listed apart in the source
[18] = inhibition of ARNT PAS-B/TACC3 complex formation – biochemical, AlphaScreen, cherry-picked samples, confirmation (AID 651703); assay type: functional, Homo sapiens;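 also: His-tagged ARNT PAS-B domain paired with GST-TACC3 E629A dimer coactivator fragment; potency of inhibitors that break up the complex and lower AlphaScreen signal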
[19] = molecular target: Benomyl/methotrexate resistance protein (Candida albicans, UniProt P28873); assay: Candida albicans Mdr1 pump inhibition curves – singleplex, Cherry Pick1 hits, dose response (AID 588608); assay type: functional
Benomyl/methotrexate resistance protein, sequence (P28873 whole entry): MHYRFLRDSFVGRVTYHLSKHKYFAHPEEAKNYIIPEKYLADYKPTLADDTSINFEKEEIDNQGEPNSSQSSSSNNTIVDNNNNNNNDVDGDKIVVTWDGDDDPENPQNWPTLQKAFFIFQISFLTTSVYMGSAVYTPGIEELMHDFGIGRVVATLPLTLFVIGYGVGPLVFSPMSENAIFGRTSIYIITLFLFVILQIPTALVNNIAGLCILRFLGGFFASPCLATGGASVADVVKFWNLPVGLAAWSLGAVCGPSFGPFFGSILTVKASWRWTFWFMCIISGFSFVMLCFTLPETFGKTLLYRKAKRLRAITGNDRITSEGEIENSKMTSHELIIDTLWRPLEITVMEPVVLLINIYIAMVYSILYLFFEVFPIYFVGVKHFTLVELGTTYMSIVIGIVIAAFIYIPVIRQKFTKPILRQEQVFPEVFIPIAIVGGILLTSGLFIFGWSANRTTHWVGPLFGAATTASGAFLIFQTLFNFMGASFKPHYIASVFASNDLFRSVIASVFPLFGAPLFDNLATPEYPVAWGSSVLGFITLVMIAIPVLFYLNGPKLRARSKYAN

[20] = molecular target: T8, Low molecular weight phosphotyrosine protein phosphatase (Homo sapiens, UniProt P24666); assay type: functional; conditions: read-out: IC50_Mean
T8 sequence (P24666 whole entry): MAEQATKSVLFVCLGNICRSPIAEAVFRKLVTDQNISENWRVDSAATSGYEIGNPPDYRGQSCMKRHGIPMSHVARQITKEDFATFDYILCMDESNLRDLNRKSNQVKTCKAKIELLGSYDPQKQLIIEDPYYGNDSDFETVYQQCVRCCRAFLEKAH

[21] = molecular target: T8, Low molecular weight phosphotyrosine protein phosphatase; assay type: functional; conditions: read-out: IC50_Mean; remark: listed apart in the source
[22] = Fluorescence-based cell-based high throughput dose response assay for inhibitors of the interaction of nucleotide-binding oligomerization domain containing 2 (NOD2) and the receptor-interacting serine-threonine kinase 2 (RIPK2).; assay type: functional, Homo sapiens

CC(=O)Nc1cccc(NC(=O)c2cccc(-c3ccc(O)cc3)c2)c1
CC50 [1]: 100 µM (active)
IC50 [2]: 46.4 µM (active)

CCOC(=O)N1CCC(N(CCOC)C(=O)Nc2ccc(Cl)c(Cl)c2)CC1
IC50 [3]: 0.99 µM (active)
EC50 [4]: 2.65 µM (active)

CC1Oc2ccccc2N(CC(=O)N(Cc2ccccc2)Cc2ccccn2)C1=O (stereo not given)
IC50 [3]: 1 µM (active)

Cc1ccc(Cn2c(C3CCCN3c3nc(-c4cc(Cl)c(N)c(Cl)c4)cs3)nc3cc(Cl)c(Cl)cc32)cc1 (stereo not given)
IC50 [5]: 11.1 µM (active)
IC50 [6]: 26.4 µM (active)

COc1cccc(Nc2nc(-c3ccc4c(c3)OCCO4)cs2)c1
IC50 [7]: 30.3 µM (active)
IC50 [8]: 40.2 µM (active)
IC50 [9]: 7.97 µM (active)
IC50 [10]: 20.3 µM (active)

O=C(COc1ccc(/C=N/NC(=O)c2ccncc2)cc1)Nc1ccc([N+](=O)[O-])cc1
IC50 [11]: 21.7 µM (inactive)
IC50 [12]: 6.08 µM (active)
IC50 [13]: > 80 µM (inactive)

COc1ccc(/N=c2\oc3cc(O)ccc3cc2C(=O)NCC2CCCO2)c(OC)c1 (stereo not given)
EC50 [14]: > 99 µM (inactive)
EC50 [15]: > 99 µM (inactive)
EC50 [16]: > 59.6 µM (inactive)
EC50 [17]: > 59.6 µM (inactive)

O=C(CCN1C(=O)c2cccnc2C1=O)NC1CCCCCC1
AC50 [18]: 76.9 µM (active)

O=C(CSc1cccc2cccnc12)N/N=C/c1ccncc1
AC50 [18]: 110 µM (active)

Cn1c(CNc2ccc(O)cc2)nc2ccccc21
EC50 [14]: > 99 µM (inactive)
EC50 [15]: > 99 µM (inactive)

COCCn1c(=S)[nH]c2sc3c(c2c1=O)CCCC3
EC50 [19]: 0.012 µM (active)
IC50 [2]: 38.7 µM (active)

O=C1/C(=C/c2cccs2)Sc2ccccc21
IC50 [7]: 2.41 µM (active)
IC50 [8]: 3.44 µM (active)
IC50 [9]: 2.11 µM (active)
IC50 [10]: 2.36 µM (active)

O=c1/c(=C\c2ccc3c(c2)OCO3)sc2n1CCCN=2
IC50 [7]: 34.1 µM (active)
IC50 [8]: 17 µM (active)
IC50 [9]: 12.6 µM (active)
IC50 [10]: 33.6 µM (active)

O=C(CSc1nc(-c2ccccc2)nc2ccc(F)cc12)Nc1ccc(C(=O)O)cc1
IC50 [20]: 25.9 µM (inactive)
IC50 [21]: 57.3 µM (inactive)

CC(=O)O[C@H]1C[C@@H]2OC3C=C(C)CCC3(C)[C@@]1(C)[C@@]21CO1 (stereo not given in full)
IC50 [22]: 49.8 µM (inactive)
